Counter-ions that a name gives are not always drawn.

For the assay, the system named is rabbits (New Zealand White). In words: Ocular hypotensive effect in rabbits. Particulars: male New Zealand White rabbits, 0.04 mL eye drop, concentration of 1% (w/v) or lower, maximum ocular hypotensive rate vs vehicle-treated contralateral eye. Format: in vivo, rabbit. On the procedure:
The compound of the present invention was administered to rabbits (New Zealand White, sex: male, 3 to 6 per group) and evaluated for its ocular hypotensive effect.
Each test compound was dissolved in a vehicle 1 (1.04 g of sodium dihydrogen phosphate dihydrate and 0.5 g of sodium chloride dissolved in purified water and then adjusted to pH 7.0 with sodium hydroxide to make the total amount to 100 mL) or a vehicle 2 (2% (w/v) aqueous boric acid solution) to prepare a test compound solution with a predetermined concentration.
The intraocular pressures of the rabbits were measured using Tiolat TonoVet handheld tonometer immediately before administration of test compound. The test compound solution and the vehicle were dropped at a volume of 0.04 mL to one eye and the contralateral eye, respectively, and the intraocular pressures were measured over time in the same way as above. The rate of the intraocular pressure of the eye receiving the test compound solution to that of the eye receiving the vehicle was calculated as an ocular hypotensive rate.

Take `C[C@H](CC(N)CCc1ccccc1)NS(=O)(=O)c1ccc2cnccc2c1` (single isomer, unassigned; diastereomer a) [Example 118]: the Ocular hypotensive activity entry is recorded as “++ (maximum ocular hypotensive rate of 15% or more)”.

For `C[C@H](CC(N)CCc1ccccc1)NS(=O)(=O)c1ccc2cnccc2c1` (single isomer, unassigned; diastereomer b) [Example 119], the Ocular hypotensive activity entry was “++ (maximum ocular hypotensive rate of 15% or more)”.

Take `C[C@H](CNCc1ccccc1)NS(=O)(=O)c1ccc2cnccc2c1` [Example 1, (R)—N-{1-(benzylamino)propan-2-yl}isoquinoline-6-sulfonamide dihydrochloride]: the Ocular hypotensive activity entry was “++ (maximum ocular hypotensive rate of 15% or more)”.

Take `CNC[C@@H](C)NS(=O)(=O)c1ccc2cnccc2c1` [Example 2, (R)—N-{1-(methylamino)propan-2-yl}isoquinoline-6-sulfonamide dihydrochloride]: the Ocular hypotensive activity result is “++ (maximum ocular hypotensive rate of 15% or more)”. Take `CCNC[C@@H](C)NS(=O)(=O)c1ccc2cnccc2c1` [Example 3, (R)—N-{1-(ethylamino)propan-2-yl}isoquinoline-6-sulfonamide dihydrochloride]: the Ocular hypotensive activity result is on record as “++ (maximum ocular hypotensive rate of 15% or more)”.

For the compound `CCCNC[C@@H](C)NS(=O)(=O)c1ccc2cnccc2c1` [Example 4, (R)—N-{1-(propylamino)propan-2-yl}isoquinoline-6-sulfonamide dihydrochloride], the Ocular hypotensive activity entry was “++ (maximum ocular hypotensive rate of 15% or more)”. Then `CCCCNC[C@H](C)NS(=O)(=O)c1ccc2cnccc2c1` [Example 6, (S)—N-{1-(butylamino)propan-2-yl}isoquinoline-6-sulfonamide dihydrochloride], with “++ (maximum ocular hypotensive rate of 15% or more)”; and `CC=CCNC[C@@H](C)NS(=O)(=O)c1ccc2cnccc2c1` [Example 7, (R)—N-{1-(but-2-enylamino)propan-2-yl}isoquinoline-6-sulfonamide dihydrochloride], with “++ (maximum ocular hypotensive rate of 15% or more)”. The value for `CC=CCNC[C@H](C)NS(=O)(=O)c1ccc2cnccc2c1` [Example 8, (S)—N-{1-(but-2-enylamino)propan-2-yl}isoquinoline-6-sulfonamide dihydrochloride] was “++ (maximum ocular hypotensive rate of 15% or more)”. Turning to `C=CCNC[C@@H](C)NS(=O)(=O)c1ccc2cnccc2c1` [Example 9, (R)—N-{1-(allylamino)propan-2-yl}isoquinoline-6-sulfonamide dihydrochloride], the Ocular hypotensive activity result is “++ (maximum ocular hypotensive rate of 15% or more)”. For `C=CCNCCNS(=O)(=O)c1ccc2cnccc2c1` [Example 10, N-{2-(allylamino)ethyl}isoquinoline-6-sulfonamide dihydrochloride], the Ocular hypotensive activity result is listed as “++ (maximum ocular hypotensive rate of 15% or more)”. Then `CCCCN[C@H](C)CNS(=O)(=O)c1ccc2cnccc2c1` [Example 11, (R)—N-{2-(butylamino)propyl}isoquinoline-6-sulfonamide dihydrochloride], with “+ (maximum ocular hypotensive rate of 5% or more and less than 15%)”.

`CCCNCC[C@@H](C)NS(=O)(=O)c1ccc2cnccc2c1` [Example 12, (R)—N-{4-(propylamino)butan-2-yl}isoquinoline-6-sulfonamide dihydrochloride]: the Ocular hypotensive activity result is on record as “++ (maximum ocular hypotensive rate of 15% or more)”. Then `C[C@H](CN1CCNCC1)NS(=O)(=O)c1ccc2cnccc2c1` [Example 13, (R)—N-{1-(piperazin-1-yl)propan-2-yl}isoquinoline-6-sulfonamide trihydrochloride], with “+ (maximum ocular hypotensive rate of 5% or more and less than 15%)”.

In the case of `CC(C)CNC[C@@H](C)NS(=O)(=O)c1ccc2cnccc2c1` [Example 14, (R)—N-{1-(isobutylamino)propan-2-yl}isoquinoline-6-sulfonamide dihydrochloride], the Ocular hypotensive activity entry is given as “++ (maximum ocular hypotensive rate of 15% or more)”.

With `C[C@H](CNC1CC1)NS(=O)(=O)c1ccc2cnccc2c1` [Example 15, (R)—N-{1-(cyclopropylamino)propan-2-yl}isoquinoline-6-sulfonamide dihydrochloride], the Ocular hypotensive activity result is “++ (maximum ocular hypotensive rate of 15% or more)”. For `C[C@H](CNCC1CCC1)NS(=O)(=O)c1ccc2cnccc2c1.Cl` [Example 16, (R)—N-{1-(cyclobutylmethylamino)propan-2-yl}isoquinoline-6-sulfonamide hydrochloride], the Ocular hypotensive activity result is recorded as “++ (maximum ocular hypotensive rate of 15% or more)”. Turning to `C[C@H](CNCC(C)(C)C)NS(=O)(=O)c1ccc2cnccc2c1` [Example 17, (R)—N-{1-(neopentylamino)propan-2-yl}isoquinoline-6-sulfonamide dihydrochloride], the Ocular hypotensive activity entry is reported as “++ (maximum ocular hypotensive rate of 15% or more)”. The value for `C[C@H](CNCC1CC1)NS(=O)(=O)c1ccc2cnccc2c1` [Example 18, (R)—N-{1-(cyclopropylmethylamino)propan-2-yl}isoquinoline-6-sulfonamide dihydrochloride] was “++ (maximum ocular hypotensive rate of 15% or more)”. Then `CCCCCNC[C@@H](C)NS(=O)(=O)c1ccc2cnccc2c1` [Example 19, (R)—N-{1-(pentylamino)propan-2-yl}isoquinoline-6-sulfonamide dihydrochloride], with “++ (maximum ocular hypotensive rate of 15% or more)”; and `CCC(C)CNC[C@@H](C)NS(=O)(=O)c1ccc2cnccc2c1` (stereo partly drawn) [Example 20, N-(2R)-{1-(methylbutylamino)propan-2-yl}isoquinoline-6-sulfonamide hydrochloride], with “++ (maximum ocular hypotensive rate of 15% or more)”. Then `CC(C)CCNC[C@@H](C)NS(=O)(=O)c1ccc2cnccc2c1.Cl` [Example 21, (R)—N-{1-(isopentylamino)propan-2-yl}isoquinoline-6-sulfonamide hydrochloride], with “+ (maximum ocular hypotensive rate of 5% or more and less than 15%)”; and `CCCCCCNC[C@@H](C)NS(=O)(=O)c1ccc2cnccc2c1` [Example 22, (R)—N-{1-(hexylamino)propan-2-yl}isoquinoline-6-sulfonamide dihydrochloride], with “++ (maximum ocular hypotensive rate of 15% or more)”; and `C[C@@H](CNCCc1ccccc1)NS(=O)(=O)c1ccc2cnccc2c1` [Example 24, (S)—N-{1-(phenethylamino)propan-2-yl}isoquinoline-6-sulfonamide dihydrochloride], with “++ (maximum ocular hypotensive rate of 15% or more)”. Turning to `C[C@H](CNC[C@@H](C)c1ccccc1)NS(=O)(=O)c1ccc2cnccc2c1` [Example 26, N—[(R)-1-{(S)-2-phenylpropylamino}propan-2-yl]isoquinoline-6-sulfonamide dihydrochloride], the Ocular hypotensive activity entry was “++ (maximum ocular hypotensive rate of 15% or more)”. The value for `CC(C)[C@H](CNCCc1ccccc1)NS(=O)(=O)c1ccc2cnccc2c1` [Example 27, (R)—N-{3-methyl-1-(phenethylamino)butan-2-yl}isoquinoline-6-sulfonamide dihydrochloride] was “++ (maximum ocular hypotensive rate of 15% or more)”; that for `COc1ccccc1CCNC[C@@H](C)NS(=O)(=O)c1ccc2cnccc2c1` [Example 28, (R)—N-{1-(2-methoxyphenethylamino)propan-2-yl}isoquinoline-6-sulfonamide dihydrochloride] was “++ (maximum ocular hypotensive rate of 15% or more)”; that for `COc1cccc(CCNC[C@@H](C)NS(=O)(=O)c2ccc3cnccc3c2)c1` [Example 29, (R)—N-{1-(3-methoxyphenethylamino)propan-2-yl}isoquinoline-6-sulfonamide dihydrochloride] was “++ (maximum ocular hypotensive rate of 15% or more)”. The value for `COc1ccc(CCNC[C@@H](C)NS(=O)(=O)c2ccc3cnccc3c2)cc1` [Example 30, (R)—N-{1-(4-methoxyphenethylamino)propan-2-yl}isoquinoline-6-sulfonamide dihydrochloride] was “++ (maximum ocular hypotensive rate of 15% or more)”. For the compound `C[C@H](CNCCc1ccccc1F)NS(=O)(=O)c1ccc2cnccc2c1` [Example 31, (R)—N-{1-(2-fluorophenethylamino)propan-2-yl}isoquinoline-6-sulfonamide dihydrochloride], the Ocular hypotensive activity entry is listed as “++ (maximum ocular hypotensive rate of 15% or more)”. Then `Cl.O=S(=O)(NCCNCCc1ccccc1)c1ccc2cnccc2c1` [Example 32, N-{2-(phenethylamino)ethyl}isoquinoline-6-sulfonamide hydrochloride], with “++ (maximum ocular hypotensive rate of 15% or more)”; and `C[C@H](CNCCC1CCCCC1)NS(=O)(=O)c1ccc2cnccc2c1` [Example 33, (R)—N-{1-(2-cyclohexylethylamino)propan-2-yl}isoquinoline-6-sulfonamide dihydrochloride], with “++ (maximum ocular hypotensive rate of 15% or more)”.

The values are drawn from patent US8883792B2, “Substituted isoquinoline derivative” (D. Western Therapeutics Institute, Inc., priority 2010, dated 2014).
